Results as given in patent US11827596B2, “Thyromimetics” (Autobahn Therapeutics, Inc., priority 2018, dated 2023).

Legend:
TRα = molecular target: T1, TRα (Homo sapiens, UniProt P10827); experiment: Thyroid-hormone reporter-gene assay (Gal4-TR hybrid, luciferase), TRα; format: cell-based; conditions: HEK293-derived reporter cells, 24 hr incubation
T1 construct: The firefly luciferase reporter under the Gal4 UAS is a separate reporter gene
T1 sequence (P10827 163-410 isoform P10827-2 limits assumed): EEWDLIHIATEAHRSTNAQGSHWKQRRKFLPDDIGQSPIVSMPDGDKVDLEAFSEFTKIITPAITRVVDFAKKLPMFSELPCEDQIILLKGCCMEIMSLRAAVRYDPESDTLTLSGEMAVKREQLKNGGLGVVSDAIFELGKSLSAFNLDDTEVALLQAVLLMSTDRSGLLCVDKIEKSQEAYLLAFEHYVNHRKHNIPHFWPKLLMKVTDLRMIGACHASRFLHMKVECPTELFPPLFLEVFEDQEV
Procedure: (§1) Reporter cells used in the assays express a TR-receptor hybrid (either TRα or […]) in which the native N-terminal DNA binding domain (DBD) has been replaced with that of the yeast Gal4 DBD. The reporter gene, firefly luciferase, is functionally linked to the Gal4 upstream activation sequence (UAS). Both cell lines were derived from human embryonic kidney (HEK293).
(§2) Step 1: A suspension of reporter cells was prepared in cell recovery medium containing 10% charcoal-stripped FBS, and dispensed into assay plates. The plates were pre-incubated for 6 hours in a cell culture incubator (37° C./5% CO2/85% humidity).
(§3) These Intermediate Stocks were subsequently diluted directly into compound screening medium containing 10% charcoal-stripped FBS to generate “2×-concentration” treatment media (containing 0.2, 0.4 or 0.8% DMSO).
(§4) Step 3: At the end of the pre-incubation period, culture media were discarded from the assay plates, and all wells received 100 μl of compound screening medium. 100 μl of each of the previously prepared “2×-concentration” treatment media were dispensed into duplicate assay wells, thereby achieving the desired final treatment concentrations. The final concentration of DMSO in all assay wells was 0.1, 0.2 or 0.4%. Assay plates were incubated for 24 hr in a cell culture incubator (37° C./5% CO2/85% humidity).
(§5) Step 4: At the 24 h assay endpoint, treatment media were discarded and 100 μl/well of luciferase detection reagent was added. Relative luminometer units (RLUs) were quantified from each assay well.

TRβ = molecular target: T2, TRβ (Homo sapiens, UniProt P10828); experiment: Thyroid-hormone reporter-gene assay (Gal4-TR hybrid, luciferase), TRβ; format: cell-based; conditions: for T3-benchmarked selectivity index (T3-SI): EC50 (TRα)*T3-EC50 (TRβ)/EC50 (TRβ)*T3-EC50 (TRα), T3 in the same experiment; for EC50: HEK293-derived reporter cells, 24 hr incubation
T2 construct: expressed in transfected cells; host or cells: HEK293-derived reporter cells
T2 sequence (P10828 217-461 limits assumed): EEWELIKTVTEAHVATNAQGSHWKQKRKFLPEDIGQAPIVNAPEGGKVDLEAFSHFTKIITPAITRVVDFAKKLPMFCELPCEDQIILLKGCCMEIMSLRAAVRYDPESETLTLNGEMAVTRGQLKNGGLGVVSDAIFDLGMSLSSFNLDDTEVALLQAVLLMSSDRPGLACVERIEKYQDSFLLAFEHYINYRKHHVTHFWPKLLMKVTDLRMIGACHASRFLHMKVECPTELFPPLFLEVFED
Procedure: as §1, §2, §3, §4, §5

[1] = Tissue distribution study, brain concentration of parent acid after prodrug dosing; format: in vivo, male C57Bl/6 mice; conditions: 1 hr after SC dosing (0.1 mg/kg) of the prodrug; parent acid measured; compared to dichloro-prodrug and Sob-AM2 (FIG. 2)
Procedure: For tissue concentration studies in male C57Bl/6 mice, test compounds are formulated as NMP/solutol/PBS solution, at a concentration of 0.05 mg/mL and dosed at 2 mL/kg with the targeted dose of 0.100 mg/kg via SC injection or oral dosing. […] Tissue homogenates and plasma concentrations of test compounds are determined using LC-MS/MS with lower limits of quantitation of 0.0200 ng/mL or 0.100 ng/g. The pharmacokinetic parameters are determined by non-compartmental methods using WinNonlin.
FIG. 2 depicts brain levels of Compound 2 recorded 1 hr after SC dosing (0.1 mg/kg) of the corresponding prodrug Compound 3.

EC50 (TRα) | T3-benchmarked selectivity index (T3-SI) (TRβ) | EC50 (TRβ) | functional EC50 (TRβ) (TRβ; TR screening) | Compound | brain concentration of the parent acid [1]
10 to 100 nM | ++ (3×<T3-SI≤30×) | 10 to 100 nM |  | CC(C)c1cc(Cc2c(Cl)cc(OCC(=O)O)cc2C(F)(F)F)ccc1O [Compound 18, 2-(3-chloro-4-(4-hydroxy-3-isopropylbenzyl)-5-(trifluoromethyl)phenoxy)acetic acid] | 
10 to 100 nM | ++ (3×<T3-SI≤30×) | 10 to 100 nM |  | Cc1cc(OCC(=O)O)cc(C(C)C)c1Cc1ccc(O)c(C(C)C)c1 [Compound 21, 2-(4-(4-hydroxy-3-isopropylbenzyl)-3-isopropyl-5-methylphenoxy)acetic acid] | 
> 1000 nM | ++ (3×<T3-SI≤30×) | 100 to 1000 nM |  | C/C=C/c1cc(OCC(=O)O)cc(C)c1Cc1ccc(O)c(C(C)C)c1 [Compound 23, (E)-2-(4-(4-hydroxy-3-isopropylbenzyl)-3-methyl-5-(prop-1-enyl)phenoxy)acetic acid] | 
100 to 1000 nM | ++ (3×<T3-SI≤30×) | 10 to 100 nM |  | C=C(C)c1cc(OCC(=O)O)cc(Cl)c1Cc1ccc(O)c(C(C)C)c1 [Compound 30, 2-(3-chloro-4-(4-hydroxy-3-isopropylbenzyl)-5-(prop-1-en-2-yl)phenoxy)acetic acid] | 
> 1000 nM | ++ (3×<T3-SI≤30×) | 100 to 1000 nM |  | Cc1cc(OCC(=O)O)cc(C2CC2)c1Cc1ccc(O)c(C(C)C)c1 [Compound 27, 2-(3-cyclopropyl-4-(4-hydroxy-3-isopropylbenzyl)-5-methylphenoxy)acetic acid] | 
10 to 100 nM | ++ (3×<T3-SI≤30×) | < 10 nM |  | CC(C)c1cc(Cc2c(Cl)cc(OCC(=O)O)cc2C(C)C)ccc1O [Compound 31, 2-(3-chloro-4-(4-hydroxy-3-isopropylbenzyl)-5-isopropylphenoxy)acetic acid] | 
100 to 1000 nM | ++ (3×<T3-SI≤30×) | 100 to 1000 nM |  | CCCc1cc(OCC(=O)O)cc(C)c1Cc1ccc(O)c(C(C)C)c1 [Compound 25, 2-(4-(4-hydroxy-3-isopropylbenzyl)-3-methyl-5-propylphenoxy)acetic acid] | 
100 to 1000 nM | ++ (3×<T3-SI≤30×) | 10 to 100 nM |  | C=C(C)c1cc(OCC(=O)O)cc(C)c1Cc1ccc(O)c(C(C)C)c1 [Compound 20, 2-(4-(4-hydroxy-3-isopropylbenzyl)-3-methyl-5-(prop-1-en-2-yl)phenoxy)acetic acid] | 

Continued, compound first:

Compound | EC50 (TRα) | T3-benchmarked selectivity index (T3-SI) (TRβ) | EC50 (TRβ) | functional EC50 (TRβ) (TRβ; TR screening) | brain concentration of the parent acid [1]
CCc1cc(OCC(=O)O)cc(C)c1Cc1ccc(O)c(C(C)C)c1 [Compound 16, 2-(3-ethyl-4-(4-hydroxy-3-isopropylbenzyl)-5-methylphenoxy)acetic acid] | 100 to 1000 nM | ++ (3×<T3-SI≤30×) | 10 to 100 nM |  | 
Cc1cc(OCC(=O)O)cc(C(F)(F)F)c1Cc1ccc(O)c(C(C)C)c1 [Compound 11, 2-(4-(4-hydroxy-3-isopropylbenzyl)-3-methyl-5-(trifluoromethyl)phenoxy)acetic acid] | 100 to 1000 nM | ++ (3×<T3-SI≤30×) | 10 to 100 nM |  | 
Cc1cc(OCC(=O)O)cc(Br)c1Cc1ccc(O)c(C(C)C)c1 [Compound 5, 2-(3-bromo-4-(4-hydroxy-3-isopropylbenzyl)-5-methylphenoxy)acetic acid] | 10 to 100 nM | ++ (3×<T3-SI≤30×) | 10 to 100 nM | equipotent with the di-bromo analog | 
Cc1cc(OCC(=O)O)cc(Cl)c1Cc1ccc(O)c(C(C)C)c1 [Compound 2, 2-(3-chloro-4-(4-hydroxy-3-isopropylbenzyl)-5-methylphenoxy)acetic acid] | 100 to 1000 nM | ++ (3×<T3-SI≤30×) | 100 to 1000 nM |  | 
CCc1cc(OCC(=O)O)cc(Cl)c1Cc1ccc(O)c(C(C)C)c1 [Compound 8, 2-(3-chloro-5-ethyl-4-(4-hydroxy-3-isopropylbenzyl)phenoxy)acetic acid] | 100 to 1000 nM | ++ (3×<T3-SI≤30×) | 10 to 100 nM |  | 
CNC(=O)COc1cc(C)c(Cc2ccc(O)c(C(C)C)c2)c(Cl)c1 [Compound 3, 2-(3-chloro-4-(4-hydroxy-3-isopropylbenzyl)-5-methylphenoxy)-N-methylacetamide] |  |  |  |  | dramatic increase in brain concentration of the parent acid
